In patent US10947223B2, “Substituted oxazines as beta-secretase inhibitors” (AMGEN INC., priority 2016, dated 2021) one finds IC50 data, which are given here for 13 compounds.

Each structure is given as a SMILES string. pIC50: −log10 of the molar value.

In test [1] the target is T1, BACE1 (Homo sapiens (Human), UniProt P56817). The test can be described thus: In vitro enzymatic BACE1 FRET assay. The test is classed as biochemical. The settings on record: pH 4.5, read-out: BACE1 Enzyme IC50. How it is done:
(§1) In Vitro Enzymatic BACE1 and BACE2 FRET (Fluorescence Resonance Energy Transfer) Assays
(§2) The cDNAs for both human recombinant BACE1 and 2 with C-terminal 6-His Tags were cloned into transient protein expression vectors, which were subsequently transfected into mammalian cell lines. These recombinant proteins were further purified using Ni-NTA affinity chromatography (Qiagen). The assay buffer used in these screens was 0.05 M acetate, pH 4.5, 8% DMSO final, 100 μM genapol (which is a nonionic detergent, below its Critical Micelle Concentration). The β-secretase enzyme (0.02 nM for BACE1 and 0.64 nM for BACE2), which was pre-incubated for one hour with the test compound, typically in about 1 uL of DMSO according to a serial dilution, was added thereto. The assay was effectively started by the addition of FRET substrate (50 nM) and the combination was incubated for one hour. The FRET assay was terminated by the addition of tris buffer, which raised the pH to neutrality, and the fluorescence was determined. The FRET substrate was a peptide with commercially available fluorophore and quencher, on opposite sides of the BACE cleavage site. The specific FRET substrate used in this assay was made by Amgen in-house. Commercially available FRET substrates, for example, the FRET substrate offered with the BACE1 FRET Assay Kit sold by ThermoFisher Scientific (Catalog Number P2985), may be used in this assay with the appropriate modifications, which are within the purview of the ability of a person with ordinary skill in the art. Proteolytic cleavage of the FRET substrate released quenching of fluorescence (excitation 488 nm and emission 590 nm).
Target sequence in this assay (P56817 46-501): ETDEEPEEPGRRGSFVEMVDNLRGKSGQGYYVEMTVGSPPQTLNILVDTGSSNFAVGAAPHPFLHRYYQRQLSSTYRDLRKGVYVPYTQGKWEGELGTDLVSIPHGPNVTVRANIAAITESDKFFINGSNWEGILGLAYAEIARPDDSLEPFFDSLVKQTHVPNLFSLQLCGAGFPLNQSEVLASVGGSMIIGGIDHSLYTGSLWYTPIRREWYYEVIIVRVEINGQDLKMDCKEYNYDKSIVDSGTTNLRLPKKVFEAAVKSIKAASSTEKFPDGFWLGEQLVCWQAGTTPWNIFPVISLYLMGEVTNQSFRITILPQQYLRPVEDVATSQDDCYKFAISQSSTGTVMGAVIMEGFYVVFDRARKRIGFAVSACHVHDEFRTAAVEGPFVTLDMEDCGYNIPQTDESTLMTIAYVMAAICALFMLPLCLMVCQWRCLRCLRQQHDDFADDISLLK

The next test addresses Recombinant CatD (Homo sapiens (Human), UniProt P07339). Put plainly: In vitro enzymatic Cathepsin D (CatD) FRET assay. Type of test: biochemical. The settings on record: pH 3.5, read-out: CatD Enzyme IC50. How it is done:
In Vitro Enzymatic Cathepsin D (CatD) FRET Assay
Recombinant CatD was expressed in CHO cells. The assay buffer for CatD was 0.05 M citrate pH 3.5, 10% DMSO final, 5 mM CHAPS. The CatD enzyme (9 nM) was pre-incubated for one hour with inhibitors, typically in about 1 uL of DMSO according to a serial dilution, is added thereto. The assays was effectively started by the addition of different FRET substrates (20 nM for CatD) and the combination was incubated for one hour. The FRET assay was terminated with by addition of tris buffer, which raises the pH to neutrality, and the fluorescence was determined. The FRET substrate was a peptide with commercially available fluorophore and quencher, on opposite sides of the CatD cleavage site. The CatD substrate peptide sequence was based on sequence #1 of Table 1 from Gulnik et al., FEBS Lett. 413(2):379-384 (1997). Proteolytic cleavage of the FRET substrate released quenching of fluorescence (CatD excitation 500 nm and emission 580 nm).
The in vitro CatD FRET assay data for each of the Examples is provided in Table 2, conducted by the first procedure described above. […] Thus, with this surprising selectivity profile, the compounds provided herein are believed to minimize, reduce or completely eliminate any risk of retinal atrophy and abnormal development of the eye and of the retinal pigmented epithelium as it relates to the normal function and activity of CatD.

The target in another test is human recombinant BACE2 (Homo sapiens (Human), UniProt Q9Y5Z0). Put plainly: In vitro enzymatic BACE2 FRET assay. The test is classed as biochemical. The settings on record: pH 4.5, read-out: BACE2 Enzyme IC50. The procedure:
as §1, §2

Test [2] concerns the target T1, BACE1. The test can be described thus: In vitro BACE1 cell-based assay (Aβ40 in conditioned medium, HTRF). The settings on record: Aβ40 in conditioned medium of cells expressing APP, 24 h. How it is done:
In Vitro BACE1 Cell-Based Assay
The cell-based assay measures inhibition or reduction of Aβ40 in conditioned medium of test compound treated cells expressing amyloid precursor protein. Cells stably expressing Amyloid Precursor Protein (APP) were plated at a density of 45K cells/well in 384 well plates (Corning/BioCoat 354663). The test compounds were then added to cells in 22-point dose response concentrations with the starting concentration being 62.5 μM. The compounds were diluted from stock solutions in DMSO and the final DMSO concentration of the test compounds on cells was 0.625%. The cells were cultivated overnight at 37° C. and 5% CO2 in DMEM supplemented with 10% FBS. After 24 h of incubation with the test compounds, the conditioned media was collected and the Aβ40 levels were determined using HTRF (Homogeneous Time Resolved Fluorescence). The IC50 of the compound was calculated from the percent of control or percent inhibition of Aβ 40 as a function of the concentration of the test compound.
The HTRF to detect Aβ40 was performed in 384 well plates (Costar 3658). The antibody pair that were used to detect Aβ 40 from cell supernatants were ConfAb40 antibody (Amgen in-house) and biotinylated 6E10 (BIOLEGEND). As an alternative to ConfAb40, a commercially available antibody, Anti-beta Amyloid 1-40 antibody [BDI350] from Abcam, Cambridge, Mass. 02139-1517 (Product code: ab20068), may be used in this assay. The concentrations were 0.35 μg/mL of ConfAb40 antibody and 1.33 μg/mL of 6E10-biotinylated antibody, as well as 4.5 μg/mL of Streptavidin Allophycocyanin Conjugate (ThermoFisher Scientific) in HTRF Buffer ([…], 1% BSA, 0.5% Tween 20).
The conditioned media was incubated with above antibodies and Streptavidin Allophycocyanin Conjugate for 30-60 minutes at 23° C. The final readout was performed on Envision from PerkinElmer.
Target sequence in this assay (P56817 46-501, species assumed): as the sequence (P56817 46-501) above
For orientation: In TR-FRET formats the signal depends on donor and acceptor labels being close together.

Chain of Recombinant CatD (P07339 65-412): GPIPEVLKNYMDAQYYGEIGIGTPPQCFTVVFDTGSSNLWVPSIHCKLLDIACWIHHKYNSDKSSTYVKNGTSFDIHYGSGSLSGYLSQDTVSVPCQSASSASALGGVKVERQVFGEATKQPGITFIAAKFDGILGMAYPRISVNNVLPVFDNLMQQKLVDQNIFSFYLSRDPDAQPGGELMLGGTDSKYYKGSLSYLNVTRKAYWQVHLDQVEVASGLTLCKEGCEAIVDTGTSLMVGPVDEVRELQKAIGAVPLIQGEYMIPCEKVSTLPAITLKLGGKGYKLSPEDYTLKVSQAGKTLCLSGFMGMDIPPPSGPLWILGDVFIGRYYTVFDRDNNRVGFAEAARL
Chain of human recombinant BACE2 (Q9Y5Z0 63-518): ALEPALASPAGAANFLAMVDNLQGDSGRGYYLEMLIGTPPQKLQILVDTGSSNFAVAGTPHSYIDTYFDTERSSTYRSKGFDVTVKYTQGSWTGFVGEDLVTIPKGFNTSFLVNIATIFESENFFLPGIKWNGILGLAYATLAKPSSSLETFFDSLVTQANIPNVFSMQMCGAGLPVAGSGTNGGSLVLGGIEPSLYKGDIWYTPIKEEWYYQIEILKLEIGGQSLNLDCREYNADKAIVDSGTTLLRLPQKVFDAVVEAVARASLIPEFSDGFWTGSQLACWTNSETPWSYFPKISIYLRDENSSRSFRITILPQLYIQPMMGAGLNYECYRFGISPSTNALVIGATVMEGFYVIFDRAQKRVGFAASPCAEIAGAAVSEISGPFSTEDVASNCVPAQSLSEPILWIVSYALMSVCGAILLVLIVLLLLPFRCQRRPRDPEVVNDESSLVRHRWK

`C#CCOc1cnc(/C(F)=C/c2ccc(F)c([C@]3(C)CO[C@@](C)(C(F)(F)F)C(N)=N3)c2)cn1` [Example 107, (2R,5R)-5-(2-fluoro-5-((Z)-2-fluoro-2-(5-(prop-2-yn-1-yloxy)pyrazin-2-yl)vinyl)phenyl)-2,5-dimethyl-2-(trifluoromethyl)-5,6-dihydro-2H-1,4-oxazin-3-amine]: the pIC50 (in general, the negative decadic logarithm of the IC50, by convention in mol/L) is 7.30 on BACE1 [1], 4.08 on Recombinant CatD, 6.43 on human recombinant BACE2 and 6.95 against BACE1 [2].

In the case of `N#Cc1ccc(/C(F)=C/c2ccc(F)c([C@@]3(C(F)F)N=C(N)O[C@@H]4C[C@@H]43)c2)nc1` [Example 102, 6-((Z)-2-(3-((1R,5S,6R)-3-amino-5-(difluoromethyl)-2-oxa-4-azabicyclo[4.1.0]hept-3-en-5-yl)-4-fluorophenyl)-1-fluorovinyl)nicotinonitrile], the pIC50 on BACE1 [1] is 6.82; at Recombinant CatD, 3.65; on human recombinant BACE2, 5.79; against BACE1 [2] it was 6.46.

In the case of `C[C@@]1(c2nc(/C=C(\F)c3ccc(C#N)cn3)ccc2F)CO[C@@](C)(C(F)(F)F)C(N)=N1` [Example 117, 6-((Z)-2-(6-((3R,6R)-5-amino-3,6-dimethyl-6-(trifluoromethyl)-3,6-dihydro-2H-1,4-oxazin-3-yl)-5-fluoropyridin-2-yl)-1-fluorovinyl)nicotinonitrile], the pIC50 at BACE1 [1] is 6.83; on Recombinant CatD, 3.92; at human recombinant BACE2, 6.07; against BACE1 [2] it was 7.05.

As for `C[C@]1(c2nc(/C=C(\F)c3ccc(C#N)cn3)ccc2F)N=C(N)OCC1(F)F` [Example 116, (R,Z)-6-(2-(6-(2-amino-5,5-difluoro-4-methyl-5,6-dihydro-4H-1,3-oxazin-4-yl)-5-fluoropyridin-2-yl)-1-fluorovinyl)nicotinonitrile], the negative logarithm of the IC50 (pIC50) is 5.98 at BACE1 [1], below 3.40 on Recombinant CatD, 4.94 at human recombinant BACE2 and 6.17 against BACE1 [2].

`C[C@]1(c2cc(/C=C(\F)c3cnc(C#N)cn3)ccc2F)N=C(N)OC[C@@H]1OCC(F)(F)F` [Example 112, 5-((Z)-2-(3-((4R,5R)-2-amino-4-methyl-5-(2,2,2-trifluoroethoxy)-5,6-dihydro-4H-1,3-oxazin-4-yl)-4-fluorophenyl)-1-fluorovinyl)pyrazine-2-carbonitrile]: the negative-log IC50 (pIC50) was 6.92 at BACE1 [1], 3.01 on Recombinant CatD, 5.20 on human recombinant BACE2 and 7.57 at BACE1 [2].

Consider `NC1=N[C@@](c2cc(/C=C(\F)c3ccc(Br)cn3)ccc2F)(C(F)F)[C@H]2C[C@H]2O1` [Example 100, (1R,5S,6R)-5-(5-((Z)-2-(5-bromopyridin-2-yl)-2-fluorovinyl)-2-fluorophenyl)-5-(difluoromethyl)-2-oxa-4-azabicyclo[4.1.0]hept-3-en-3-amine], for which the negative logarithm of the IC50 (pIC50) is 6.59 at BACE1 [1], 4.19 at Recombinant CatD, 6.25 on human recombinant BACE2 and 6.02 against BACE1 [2].

In the case of `C[C@@]1(c2cc(/C=C(\F)c3cnc(C#N)cn3)ccc2F)CO[C@@](C)(C(F)(F)F)C(N)=N1` [Example 105, 5-((Z)-2-(3-((3R,6R)-5-amino-3,6-dimethyl-6-(trifluoromethyl)-3,6-dihydro-2H-1,4-oxazin-3-yl)-4-fluorophenyl)-1-fluorovinyl)pyrazine-2-carbonitrile], the pIC50 on BACE1 [1] is 7.34; on Recombinant CatD, 3.38; at human recombinant BACE2, 6.56; at BACE1 [2], 6.89.

For `NC1=N[C@@](c2cc(/C=C(\F)c3ccc(Cl)cn3)ccc2F)(C(F)F)[C@H]2C[C@H]2O1` [Example 101, (1R,5S,6R)-5-(5-((Z)-2-(5-chloropyridin-2-yl)-2-fluorovinyl)-2-fluorophenyl)-5-(difluoromethyl)-2-oxa-4-azabicyclo[4.1.0]hept-3-en-3-amine], the pIC50 on BACE1 [1] was 6.02; on Recombinant CatD, 3.67; on human recombinant BACE2, 6.38; at BACE1 [2] it was 5.95.

Regarding `CC#CCOc1cnc(/C(F)=C/c2ccc(F)c([C@@]3(C)N=C(N)OC[C@@H]3OCC(F)(F)F)c2)cn1` [Example 113, (4R,5R)-4-(5-((Z)-2-(5-(but-2-yn-1-yloxy)pyrazin-2-yl)-2-fluorovinyl)-2-fluorophenyl)-4-methyl-5-(2,2,2-trifluoroethoxy)-5,6-dihydro-4H-1,3-oxazin-2-amine], the negative logarithm of the IC50 (pIC50) on BACE1 [1] is 7.28; at Recombinant CatD, 3.63; on human recombinant BACE2 it was 4.77; against BACE1 [2] it was 7.32.

Regarding `C[C@@]1(c2cc(/C=C(\F)c3cnc(Cl)cn3)ccc2F)CO[C@@](C)(C(F)(F)F)C(N)=N1` [Example 108, (2R,5R)-5-(5-((Z)-2-(5-chloropyrazin-2-yl)-2-fluorovinyl)-2-fluorophenyl)-2,5-dimethyl-2-(trifluoromethyl)-5,6-dihydro-2H-1,4-oxazin-3-amine], the pIC50 on BACE1 [1] is 6.93; at Recombinant CatD, 4.41; at human recombinant BACE2, 7.48; on BACE1 [2] it was 6.18.

With `C#CCOc1cnc(/C(F)=C/c2ccc(F)c([C@@]3(C)N=C(N)OC[C@@H]3OCC(F)(F)F)c2)cn1` [Example 111, (4R,5R)-4-(2-fluoro-5-((Z)-2-fluoro-2-(5-(prop-2-yn-1-yloxy)pyrazin-2-yl)vinyl)phenyl)-4-methyl-5-(2,2,2-trifluoroethoxy)-5,6-dihydro-4H-1,3-oxazin-2-amine], the pIC50 on BACE1 [1] is 6.82; at Recombinant CatD, 3.18; at human recombinant BACE2 it was 4.80; at BACE1 [2], 7.23.

On to `C[C@]1(c2cc(/C=C(\F)c3ccc(C#N)cn3)ccc2F)N=C(N)OCC1(F)F` [Example 114, (R,Z)-6-(2-(3-(2-amino-5,5-difluoro-4-methyl-5,6-dihydro-4H-1,3-oxazin-4-yl)-4-fluorophenyl)-1-fluorovinyl)nicotinonitrile], for which the negative logarithm of the IC50 (pIC50) was 6.59 at BACE1 [1], below 3.40 on Recombinant CatD, 5.56 on human recombinant BACE2 and 5.58 on BACE1 [2].

For the compound `C[C@]1(c2cc(/C=C(\F)c3cnc(Cl)cn3)ccc2F)N=C(N)OC[C@@H]1OCC(F)(F)F` [Example 110, (4R,5R)-4-(5-((Z)-2-(5-chloropyrazin-2-yl)-2-fluorovinyl)-2-fluorophenyl)-4-methyl-5-(2,2,2-trifluoroethoxy)-5,6-dihydro-4H-1,3-oxazin-2-amine], the negative-log IC50 (pIC50) was 6.47 at BACE1 [1], 3.28 at Recombinant CatD, 5.82 on human recombinant BACE2 and 7.05 against BACE1 [2].
